We go through 3 compounds from US7476380B2, “Methods for treating illnesses of the tracheo-bronchial tract, especially chronic obstructive pulmonary disease (COPD)” (GSE-Forschungszentrum fur Umwelt und Gesundheit GmbH, priority 2000, dated 2009).

The test system of experiment [1] is MMP-9. Put plainly: MMP-9 in culture supernatant of alveolar macrophages (BAL cells), ELISA. The experiment is classed as cell-based. Particulars: human alveolar macrophages; for MMP-9 expression: 5 μM final, day 3 (day 4 the same), culture supernatant. Here is the method: (§1) For this purpose, human alveolar macrophages (AMs) were obtained via bronchial lavage. The AMs were seeded into Mono Mac 6 medium+10% FCS onto a 24 well “low attachment” plate (Costar) using 1×10^6 cells in a volume of 1 ml per each sample. Additions of vitamin A liposomes or of the pure substances, respectively, were carried out. Cells for RT-PCR or culture supernatant for protein determinations by means of ELISA, respectively, were harvested from parallel samples each on day 1, day 3, and day 4. Specifically, the following samples were prepared: • β=control sample, AMs in medium only • Lipleer=empty liposomes • LipVitA=liposomes containing vitamin A (retinoic acid, Sigma R-2625) 5 μM final • VitA=pure vitamin A (retinoic acid, Sigma R-2625) 5 μM final • LipPalm=liposomes containing all-trans retinol palmitate (Sigma R-3375) 3 μM final • Palmitat=all-trans retinol palmitate (Sigma R-3375) 3 μM final
(§2) The culture supernatants were monitored for MMP-9 and TMP-1 content using commercial ELISA kits (Amersham Pharmacia). In each case the numerals refer to ng/ml culture supernatant based on 1×10^6 cells.
(§3) • RPMI 1640 (Biochrom # F1415, Berlin), L-glutamine 2 mM (Gibco # 25030-024), penicillin 200 U/ml, streptomycin 200 μg/ml (Gibco # 15140-114), non-essential amino acids (NEAA) 1-2x (Gibco # 11140-35), OPI supplement (contains oxalacetate, Na pyruvate and insulin) 10 ml per 1 liter (Sigma # O-5003). Following filtration through a Gabro ultrafilter U 2000 (Martinsried, Germany) to remove LPS addition of 10% FCS, LPS tested. • Costar low attachment 24 well plates # 3473 (Bodenheim, Germany) 1×10^6 BAL cells (=cells obtained by brocho-alveolar lavage containing alveolar macrophages in an amount of about 80%) or 1.5×10^6 PBMCs (=peripheral blood mononuclear cells isolated via LymphoPrep gradient (Nycomed, Norway)), respectively, in a volume of 1 ml were used per sample. Pretreat the 24 well low attachment cell culture plate according to the manufacturer's instructions. For this purpose, fill the respective wells with 1 ml of medium and incubate for 20 min at 37° C. in an incubator. Afterwards remove the medium and replace by cell suspension. Add the liposomes loaded with vitamin A in a final concentration of 5×10^−6 M. Prepare parallel samples with pure vitamin A and empty liposomes as controls. For the measurement of MMP-9 and TIMP-1 in the culture supernatant and for determination of mRNA expression incubate the cells in an incubator for three days at 37° C. Afterwards resuspend the cells carefully and first remove 2×10^4 cells per PCR lysate for lysis in 200 μl of RNAclean (AGS, Heidelberg, Germany)in an Eppendorf reaction vial. Store these PCR lysates at −20° C. until further use. Transfer the remaining cell suspension into an Eppendorf vial and centrifuge for 5 min at 14,000×g. Remove the supernatant, transfer into a fresh vial and store at −80° C. until measurement. Summary of the Samples: • 1. BAL cells or PBMCs, respectively without any addition • 2. BAL cells or PBMCs, respectively + empty liposomes • 3. BAL cells or PBMCs, respectively + liposomes vitA 5 μM final • 4. BAL cells or PBMCs, respectively pure vitA 5 μM final Determinations of MMP-9 and TIMP-1 on the Protein Level by ELISA
(§4) For the measurement of MMP-9 and TIMP-1 in cell culture supernatants commercially available ELISA kits of Amersham Pharmacia Biotech company (Freiburg, Germany) are used. […]

The subject of experiment [2] is TIMP-1. Put plainly: TIMP-1 in culture supernatant of alveolar macrophages (BAL cells), ELISA. The experiment is classed as cell-based. To be noted: human alveolar macrophages; for TIMP-1 expression: 5 μM final, day 3 (day 4 the same), culture supernatant. As for the experimental part:
as §1, §2, §3, §4

For experiment [3], the system named is MMP-9. The experiment is described as follows: MMP-9 expression in blood monocytes (PBMCs). The experiment is classed as cell-based, human. As for the experimental part: as §3, with “Afterwards resuspend the cells carefully and first remove 2×10^4 cells per PCR lysate for lysis in 200 μl of RNAclean (AGS, Heidelberg, Germany)in an Eppendorf reaction vial. Store these PCR lysates at −20° C. until further use. Transfer the remaining cell suspension into an Eppendorf vial and centrifuge for 5 min at 14,000×g. Remove the supernatant, transfer into a fresh vial and store at −80° C. until measurement. Summary of the Samples: • 1. BAL cells or PBMCs, respectively without any addition • 2. BAL cells or PBMCs, respectively + empty liposomes • 3. BAL cells or PBMCs, respectively + liposomes vitA 5 μM final • 4. BAL cells or PBMCs, respectively pure vitA 5 μM final Determinations of MMP-9 and TIMP-1 on the Protein Level by ELISA” left out

The test system of experiment [4] is TIMP-1. Put plainly: TIMP-1 expression in blood monocytes (PBMCs). The experiment is classed as cell-based, human. Here is the method: as §3, with “Afterwards resuspend the cells carefully and first remove 2×10^4 cells per PCR lysate for lysis in 200 μl of RNAclean (AGS, Heidelberg, Germany)in an Eppendorf reaction vial. Store these PCR lysates at −20° C. until further use. Transfer the remaining cell suspension into an Eppendorf vial and centrifuge for 5 min at 14,000×g. Remove the supernatant, transfer into a fresh vial and store at −80° C. until measurement. Summary of the Samples: • 1. BAL cells or PBMCs, respectively without any addition • 2. BAL cells or PBMCs, respectively + empty liposomes • 3. BAL cells or PBMCs, respectively + liposomes vitA 5 μM final • 4. BAL cells or PBMCs, respectively pure vitA 5 μM final Determinations of MMP-9 and TIMP-1 on the Protein Level by ELISA” left out

Experiment [5] deals with enzymes having gelatinase activities. Particulars: Park and Kim, Mol. Cells 1999; cited from earlier work.
The test system of the next experiment is metalloproteases. To be noted: rat osteoblasts; Overall 1995; cited from earlier work.
The next experiment concerns TMP-1. Particulars: rat osteoblasts, depending on the dose; Overall 1995; cited from earlier work.
In the next experiment the test system is TIMP. Particulars: Heath et al. 1990; cited from earlier work.
Another experiment has as its system MMP-9/TIMP-1. Put plainly: MMP-9/TIMP-1 ratio of alveolar macrophages (BAL cells). The experiment is classed as cell-based, human. To be noted: day 3. An excerpt:
There is increasing evidence that disorders in the protease/protease inhibitor equilibrium are the cause underlying the pathogenesis of chronic lung diseases. […] This is particularly true for patients suffering from chronic obstructive bronchitis (COPD). Among the MMPs in COPD, it is particularly the secretion of MMP-9 metalloprotease which is increased in the airways and alveoles and can no longer be completely neutralized by its natural antagonist TIMP-1 (tissue inhibitor of metalloprotease). […] An important criterion to determine the degree of the disturbance of the protease/antiprotease equilibrium is the proteinase-to-inhibitor ratio: MMP-9/TIMP-1.
For this purpose, human alveolar macrophages (AMs) were obtained via bronchial lavage. The AMs were seeded into Mono Mac 6 medium+10% FCS onto a 24 well “low attachment” plate (Costar) using 1×10^6 cells in a volume of 1 ml per each sample. Additions of vitamin A liposomes or of the pure substances, respectively, were carried out. Cells for RT-PCR or culture supernatant for protein determinations by means of ELISA, respectively, were harvested from parallel samples each on day 1, day 3, and day 4. […]
The culture supernatants were monitored for MMP-9 and TMP-1 content using commercial ELISA kits (Amersham Pharmacia). […]

The mark [6] stands for this setting: day 1 following vitamin A addition.

For the compound `CC1=C(/C=C/C(C)=C/C=C/C(C)=C/C(=O)O)C(C)(C)CCC1` [free vitamin A, all-trans retinoic acid], the MMP-9 expression entry was “strongly reduced” in the experiment on MMP-9 [1] and “clear inhibition” in the experiment with MMP-9 [1] (listed as retinoic acid). The TIMP-1 expression result in the experiment with TIMP-1 [2] was “increase”; with TIMP-1 [2] (listed as retinoic acid), “stimulation”. Also, in the experiment with MMP-9 [3], the “expression of MMP-9 metalloprotease” value is “clear inhibition”. Besides, the TIMP-1 inhibitor expression entry with TIMP-1 [4] was “stimulation”. For the same compound, the “activity of enzymes having gelatinase activities (metalloproteases)” value in experiment [5] is listed as “increased”. The expression of metalloproteases result in the experiment on metalloproteases is on record as “increases”. The “mRNA levels of TMP-1” value in the experiment on TMP-1 is recorded as “clearly reduced”.
As for `CC1=C(/C=C/C(C)=C/C=C/C(C)=C/CO)C(C)(C)CCC1` [retinol], the MMP-9 expression entry with MMP-9 [1] is on record as “clear inhibition”. In the experiment with TIMP-1 [2], the TIMP-1 expression entry is listed as “stimulation”. Further, the “expression of MMP-9 metalloprotease” value in the experiment with MMP-9 [3] is on record as “clear inhibition”. Also, the TIMP-1 inhibitor expression entry in the experiment on TIMP-1 [4] is listed as “stimulation”. The TIMP levels in the experiment with TIMP was 0.
With vitamin A, the MMP-9 expression result in the experiment on MMP-9 [1] is reported as “significantly inhibits”. In addition, in the experiment on MMP-9 [1] (setting [6]), the “MMP-9 on the protein level, day 1” value is listed as “no effect”. In addition, the TIMP-1 expression entry in the experiment with TIMP-1 [2] is given as “significantly stimulates”. The “TIMP-1 on the protein level, day 1” value in the experiment with TIMP-1 [2] (setting [6]) is given as “no effect”. Moreover, the “effect on the MMP-9/TIMP-1 ratio” value in the experiment on MMP-9/TIMP-1 is reported as “drastic effect”.
